Measurements from US9186390B2, “Methods and uses of TIE2 binding and/or activating agents” (Sunnybrook Health Sciences Center, priority 2010, dated 2015).
Entries after “also recorded” stand apart in the source; their conditions may differ.

Legend:
acute asthma mice = assay: Acute asthma model (ovalbumin sensitization, intranasal challenge); assay type: in vivo, Balb/c mice
Experimental: (§1) (Chronic asthma model) Seven week old female Balb/c mice were injected intraperitoneally (IP) with 20 μg of chicken ovalbumin (OVA) absorbed with 1 mg aluminum hydroxide, an adjuvant known to promote the development of a Th2 response by the immune system, on day 0 (denoted by first day injection) and day 7. Full body inhaled exposure to OVA was initiated at day 21. Briefly, these treatments utilized an InExpose full body aerosol chamber (Scireq, Montreal, Canada) where a 1% OVA solution, suspended in PBS, pH 7.45, was nebulized at 0.2 mL/min with a filtered room air flow rate of 2400 mL/min for a total period of 30 minutes, 3 times a week for either 42 (FIG. 13A) or 62 days (FIG. 13B). (Acute asthma model) Seven week old female Balb/c mice were injected intraperitoneally with 50 μg of chicken OVA absorbed with 1 mg aluminum hydroxide on day 0 (denoted by first day injection) and day 7. Aqueous OVA ([…] in PBS) was delivered intranasally daily from day 20 to day 24 (FIG. 2), Vasculotide or saline vehicle (control, PBS) was delivered to the mice via IP injections.
(§2) Blood was collected from the left ventricle of anaesthetized mice into heparinized 1 cc syringes. Following collection, blood was placed into Li-heparin microtubes. Subsequently, the tubes were centrifuged at 3000 RPM for 15 minutes at 4° C. Plasma was collected from the top of the samples and frozen at −80° C. for later analysis. The remaining buffy coat and red blood cells were lysed then fixed in 1× lyse/fix buffer (BD Biosciences, Mississauga, Canada) according to manufacturer's instructions.
(§3) Twenty-four hours after last aerosol exposure and immediately following exsanguinations, tissue was dissected from neck to expose trachea. A small lateral incision was made in the trachea to allow passage of 23 gauge lavage catheter into trachea. The catheter, attached to a 3 cc syringe containing warmed Hanks buffer, was carefully passed into the lumen of the trachea. A suture was secured around the trachea with a knot to secure the catheter in place. Buffer (1 cc) was injected slowly into the lungs and fully aspirated three times. The volume of recovered buffer was recorded for each animal to facilitate calculation of BAL infiltrate.
(§4) Analysis of plasma samples generated for the asthma study was the same as that outlined for the atopic dermatitis study with one small modification. Plasma from mice used in the asthma study was diluted 1:4 instead of 1:8 for the atopic dermatitis samples.
(§5) (BAL analysis) Collected BAL fluid was centrifuged at 1000 RPM for 10 minutes at 4° C. BAL fluid was removed and collected for subsequent CBA analysis. The BAL cell pellet was lysed/fixed in 1× lyse/fix buffer according to manufacturer's instructions (BD Biosciences, Mississauga, Canada). The total number of cells contained in each sample was determined by flow cytometry using flow-set beads (Count Bright Beads, Invitrogen), to facilitate sample volume and cell count calculations. A total of 7000 beads were counted for each sample. Flow cytometry analysis was gated on FSC/SSC to eliminate debris and dead cells. Differential cell count analysis was also performed by FACS where surface marker antibodies were used as follows: eosinophils (SSC^hi FITCmed Ige^med), neutrophils (SSC^med FITC^hi Ige^med), monocytes (SSC^med CD11b^+ CD115^+) and lymphocytes (SSC^lo and CD4^+ or CD8^+). In addition to monocyte markers (SSC^med CD11b^+ CD115^+), these cell populations were further characterized using antibodies specific for Tie2, TLR4, and Ly6C. Ly6C^low and Ly6C^high further define monocytes as classical, resident monocytes or inflammatory monocytes, respectively. Identified neutrophils were further labelled with antibodies to Tie2 and TLR4. All cell suspensions were incubated with purified anti-CD16/CD32 mAb (BD Biosciences, Mississauga, ON, Canada) to block non-specific background caused by Fc receptors, followed by incubation with the specific antibodies. […]

CFU-G = assay: Methocult colony assay (ex vivo bone marrow proliferation and differentiation); assay type: cell-based, CD1 mice; details: 1 ng/ml or 10 ng/ml, Methocult M3434, 7 days
Experimental: Bone marrow was flushed from the femur bones of two month old CD1 mice and was suspended in Iscove's Modified Dulbecco's Media (Sigma, St. Louis, Mo.) at a concentration of 1×10^5 per ml. Cells were thoroughly suspended in methocellulose M3434 media (Stem Cell Technologies, Vancouver, BC) such that 1×10^4 cells per 35 mm tissue culture dish were dispensed. Prior to dispensing into the tissue culture dishes either vehicle (PBS) or Vasculotide 1 ng/ml or 10 ng/ml was mixed in. Plates were placed in an incubator at 37° C., 5% CO2 for 7 days without replenishment of vehicle or Vasculotide. […] Using an ex vivo model of bone marrow proliferation and differentiation (methocult), the influence of Vasculotide on bone marrow extracted from the femurs of normal CD1 mice was observed. Bone marrow was disaggregated and resuspended in methocult M3434 media plus Vasculotide (Vasc 1 ng/ml or 10 ng/ml) or control (PBS).

chronic asthma mice = assay: Chronic asthma model (ovalbumin sensitization, nebulized challenge, d42 / d62); assay type: in vivo, Balb/c mice
Experimental: as §1, §2, §3, §4, §5

[1] = Vasculotide-specific ELISA of circulating Vasculotide in mouse plasma; assay type: in vivo, CD1 mice; details: for circulating level in plasma after oral delivery: 2 μg P.O. (gavage)
From the text: Several monoclonal antibodies have been raised against the modified T7 peptide. These antibodies have been extensively validated and used to develop an ELISA which is capable of measuring picogram quantities of Vasculotide in mouse plasma or serum. There is an excellent linear relationship between ELISA signal and Vasculotide concentration with little interference from mouse plasma/serum proteins (FIG. 1C).
The developed ELISA was used to track circulating levels of Vasculotide in the plasma of mice over time. […] The incongruence of these findings is likely due to a paucity of sensitivity in the ELISA-based detection of Vasculotide.

[2] = chronic asthma, sustained effect

Vasculotide: Modified T7 peptide (CHHHRHSF, SEQ ID NO:2) conjugated to 10 kDa tetrameric polyethylene glycol-maleimide; Tie2 binding peptide mimetic
classical monocytes (Ly6C−) in BAL (acute asthma mice; acute asthma, d24): increased | number of peripheral blood mononuclear cells (acute asthma mice; acute asthma, d24): prevented a significant increase | plasma IL-4 (cytometric bead array) (acute asthma mice; acute asthma, d24): decreased | plasma IL-5 (cytometric bead array) (acute asthma mice; acute asthma, d24): decreased | plasma IL-13 (cytometric bead array) (acute asthma mice; acute asthma, d24): decreased | plasma MCP-1 (cytometric bead array) (acute asthma mice; acute asthma, d24): decreased | plasma MIP1α (cytometric bead array) (acute asthma mice; acute asthma, d24): decreased | plasma MIP1β (cytometric bead array) (acute asthma mice; acute asthma, d24): decreased | plasma RANTES (cytometric bead array) (acute asthma mice; acute asthma, d24): decreased | plasma TNF (cytometric bead array) (acute asthma mice; acute asthma, d24): decreased | inflammatory monocytes (Ly6C+) in BAL (acute asthma mice; acute asthma, d24, vs PBS asthmatic controls): significantly fewer; also recorded: decreased | BAL eosinophil absolute counts (acute asthma mice; acute asthma, day 24): reduced; also recorded: statistical reduction | BAL number of lymphocytes (acute asthma mice; acute asthma, day 24): did not affect; also recorded: non-statistical trend towards decreased | BAL number of monocytes (acute asthma mice; acute asthma, day 24): did not affect | BAL number of neutrophils (acute asthma mice; acute asthma, day 24): did not affect; also recorded: non-statistical trend towards decreased | reduction of total absolute BAL counts (acute asthma mice; acute asthma, systemic (IP) treatment, flow cytometry): 25% | BAL cell numbers in the absence of asthma (acute asthma mice; non-asthmatic mice): no effect | all other populations of cells (colonies) (CFU-G): statistically indistinguishable from PBS control | total CFU-G numbers (CFU-G; vs PBS): statistically significant, dose-dependent reduction; also recorded: dose dependent, statistically significant reduction | Tie2 levels in BAL neutrophils (chronic asthma mice; asthmatic mice, flow cytometry): unchanged | BAL neutrophil count (chronic asthma mice; chronic asthma, d42): unchanged | BAL eosinophil numbers (chronic asthma mice; chronic asthma, d42 and d62): significantly decreased; also recorded: statistical reduction | BAL monocyte infiltration / absolute number of monocytes (chronic asthma mice; chronic asthma, d42 and d62): significantly decreased; also recorded: statistical reduction | inflammatory monocytes (Ly6C+) in BAL (chronic asthma mice; chronic asthma, d42 and d62): decreased | absolute number of peripheral blood mononuclear cells (chronic asthma mice; chronic asthma, d42 or d62, did not reach significance): clear trend toward a reduction | BAL neutrophil count (chronic asthma mice; chronic asthma, d62): slight increase | BAL neutrophil count (chronic asthma mice; chronic asthma, d62, listed as Vsaculotide): very small increase | BAL lymphocytes (chronic asthma mice; chronic asthma, day 42 and day 62): statistical reduction | plasma IL-5 (cytometric bead array) (chronic asthma mice; [2]): decreasing | plasma RANTES (cytometric bead array) (chronic asthma mice; [2]): decreasing | plasma TNF (cytometric bead array) (chronic asthma mice; [2]): decreasing | reduction of total absolute BAL counts (chronic asthma mice; d42 chronic asthma model, systemic (IP) treatment, flow cytometry): 45% | TLR4 expression on BAL eosinophils (mean fluorescence intensity) (chronic asthma mice; d42 chronic asthma, PBS 166): 758 MFI | cell surface level of Tie2 on BAL eosinophils (mean fluorescence intensity) (chronic asthma mice; d42 chronic asthma, PBS 566): 205 MFI | decrease in lung collagen deposition (Masson's trichrome, % blue positive area) (chronic asthma mice; d62 chronic asthma, vs PBS): 4 fold | TLR4 expression on BAL eosinophils (mean fluorescence intensity) (chronic asthma mice; d62 chronic asthma, PBS 118): 132 MFI | time up to which significant levels of circulating Vasculotide are detected by ELISA ([1]; 2 μg I.P., p=0.0149 PBS vs Vasc): up to 24 hours | circulating level in plasma after oral delivery [1]: no significant levels | circulating level in plasma after oral delivery ([1]; listed as Vasc-PEG): did not result in any detectable levels | circulating level in plasma at 24 hours post injection ([1]; I.P., unpaired student t-test vs PBS): statistically detectable level
